Test results taken from publication PMC6892603 (Bioorganic & medicinal chemistry letters, 2019).

Columns and labels:
[1] = Cytotoxicity screen, growth inhibition of HC-04 cells; details: human
[2] = Cytotoxicity screen, growth inhibition of HFF cells; details: human
[3] = In vitro intrinsic clearance in human liver microsomes; type: in vitro ADME
[4] = test system: L. donovani MHOM-ET 67/L82; test: Activity against L. donovani amastigotes, axenic assay
T. cruzi CYP51 = T. cruzi CYP51 (Trypanosoma cruzi, UniProt Q7Z1V1); test: T. cruzi CYP51 heme ligand binding; details: Soret band
Chain of T. cruzi CYP51 (Q7Z1V1 whole entry): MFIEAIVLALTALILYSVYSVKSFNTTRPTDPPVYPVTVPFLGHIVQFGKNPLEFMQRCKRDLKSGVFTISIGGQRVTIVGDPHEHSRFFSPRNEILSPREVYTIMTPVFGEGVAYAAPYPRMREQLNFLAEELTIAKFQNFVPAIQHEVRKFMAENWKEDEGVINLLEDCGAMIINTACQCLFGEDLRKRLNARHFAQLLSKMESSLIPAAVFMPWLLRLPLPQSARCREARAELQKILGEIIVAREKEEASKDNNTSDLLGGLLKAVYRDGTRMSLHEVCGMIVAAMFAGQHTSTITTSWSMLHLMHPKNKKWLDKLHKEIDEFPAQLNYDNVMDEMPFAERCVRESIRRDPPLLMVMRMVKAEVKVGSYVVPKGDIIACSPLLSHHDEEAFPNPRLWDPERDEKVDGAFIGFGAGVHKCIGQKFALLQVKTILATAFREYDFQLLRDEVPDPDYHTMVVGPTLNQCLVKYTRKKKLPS

[5] = Aqueous solubility by nephelometry; type: physicochemical; details: for Sol6.5: pH 6.5 phosphate buffer
T. gondii RH-dTom = test: Activity against T. gondii RH-dTom; type: cell-based, Toxoplasma gondii
[6] = test system: panel of cancer cell lines; details: read-out: IC50 against a panel of cancer cell lines; previously reported; cited from earlier work
[7] = Cytotoxicity screen, growth inhibition of HEK 293T cells; details: human, Cytotoxicity IC50 HEK 293T, human kidney
[8] = test system: Tulahuen C4 strain of Trypanosoma cruzi; test: microbe, parasite or virus in culture; details: read-out: T. cruzi IC50

Structure (SMILES) | IC50 [1] | IC50 [2] | microsomal CLint [3] | T. cruzi CYP51 spectral response (T. cruzi CYP51) | Sol6.5 [5] | other results
CN1CCN(c2ccc(S(=O)(=O)NCc3ccc(C(=O)Nc4cccnc4)cc3)cc2)CC1 [Compound 2] | > 50 µM | > 50 µM | 45 µL/min/mg | moderate type II spectral response | 25 to 50 µg/mL | Effect on growth of Leishmania donovani [4]: no effect on the growth; Effect on growth of Toxoplasma gondii (T. gondii RH-dTom): no effect on the growth; IC50 [6]: 0.01 to 1 µM
O=C(Nc1cccnc1)c1ccc(CNS(=O)(=O)c2ccc(N3CCOCC3)cc2)cc1 [Compound 5] | > 50 µM |  | 69 µL/min/mg |  | 12.5 to 25 µg/mL | Sol2.0 ([5]; 0.01 M HCl (approx. pH 2.0)): 50 to 100 µg/mL; IC50 [7]: < 1 µM
Cc1ncccc1NC(=O)c1ccc(CNS(=O)(=O)c2ccc(N3CCN(C)CC3)cc2)cc1 [Compound 14] |  |  |  | did not cause any changes |  | 
CN1CCN(c2ccc(S(=O)(=O)NCc3ccc(-c4nc(-c5cccnc5)no4)cc3)cc2)CC1 [Compound 19] | > 50 µM | > 50 µM |  |  | 25 to 50 µg/mL | 
O=C(Cn1ccnc1[N+](=O)[O-])NCc1ccccc1 [benznidazole] |  |  |  |  |  | IC50 [8]: 1.2 to 4.2 µM
